In ChEMBL document CHEMBL3621179, “Styrylphenylphthalimides as Novel Transrepression-Selective Liver X Receptor (LXR) Modulators” (ACS Med Chem Lett, 2015):
Activity calls are given as the source filed them. No cut-off for these calls is given here.

Key:
[1] = biological target: Oxysterols receptor LXR-alpha (Homo sapiens, UniProt Q13133); assay: Antagonist activity at human LXR-alpha transfected in HEK293 cells after 16 hrs by luciferase reporter gene assay in presence of 0.3 uM N-(4-(1,1,1,3,3,3-hexafluoro-2-hydroxypropan-2-yl)phenyl)-N-(2,2,2-trifluoroethyl)benzenesulfonamide; type: cell-based
[2] = biological target: T1, Oxysterols receptor LXR-beta (Homo sapiens, UniProt P55055); assay: Antagonist activity at human LXR-beta transfected in HEK293 cells after 16 hrs by luciferase reporter gene assay in presence of 0.1 uM N-(4-(1,1,1,3,3,3-hexafluoro-2-hydroxypropan-2-yl)phenyl)-N-(2,2,2-trifluoroethyl)benzenesulfonamide; type: cell-based
[3] = biological target: T2, Peroxisome proliferator-activated receptor alpha (Homo sapiens) (UniProt Q07869); assay: Agonist activity at PPAR-alpha (unknown origin) by luciferase reporter gene assay
T2 sequence (whole entry): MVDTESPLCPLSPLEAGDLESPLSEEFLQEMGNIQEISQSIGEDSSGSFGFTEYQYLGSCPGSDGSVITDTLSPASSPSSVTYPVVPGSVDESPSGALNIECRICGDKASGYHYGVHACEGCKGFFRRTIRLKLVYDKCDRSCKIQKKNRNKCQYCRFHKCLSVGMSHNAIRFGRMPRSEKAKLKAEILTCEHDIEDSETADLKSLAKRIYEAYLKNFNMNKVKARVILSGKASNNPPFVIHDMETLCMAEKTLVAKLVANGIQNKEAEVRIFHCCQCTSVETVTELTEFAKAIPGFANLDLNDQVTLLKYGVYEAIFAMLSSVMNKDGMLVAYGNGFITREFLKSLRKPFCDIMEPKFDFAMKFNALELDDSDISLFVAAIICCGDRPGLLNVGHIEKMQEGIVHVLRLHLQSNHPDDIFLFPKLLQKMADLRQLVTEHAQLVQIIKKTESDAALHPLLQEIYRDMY

THP-1 [4] = assay: Inhibition of LPS-induced IL-6 production in human THP1 cells transfected with LXR-beta CRISPR/Cas9 knockout plasmid at 5 uM after 18 hrs by ELISA; type: functional, cell-based
[5] = biological target: T3, Peroxisome proliferator-activated receptor gamma (Homo sapiens) (UniProt P37231); assay: Agonist activity at PPAR-gamma (unknown origin) by luciferase reporter gene assay
T3 sequence (whole entry): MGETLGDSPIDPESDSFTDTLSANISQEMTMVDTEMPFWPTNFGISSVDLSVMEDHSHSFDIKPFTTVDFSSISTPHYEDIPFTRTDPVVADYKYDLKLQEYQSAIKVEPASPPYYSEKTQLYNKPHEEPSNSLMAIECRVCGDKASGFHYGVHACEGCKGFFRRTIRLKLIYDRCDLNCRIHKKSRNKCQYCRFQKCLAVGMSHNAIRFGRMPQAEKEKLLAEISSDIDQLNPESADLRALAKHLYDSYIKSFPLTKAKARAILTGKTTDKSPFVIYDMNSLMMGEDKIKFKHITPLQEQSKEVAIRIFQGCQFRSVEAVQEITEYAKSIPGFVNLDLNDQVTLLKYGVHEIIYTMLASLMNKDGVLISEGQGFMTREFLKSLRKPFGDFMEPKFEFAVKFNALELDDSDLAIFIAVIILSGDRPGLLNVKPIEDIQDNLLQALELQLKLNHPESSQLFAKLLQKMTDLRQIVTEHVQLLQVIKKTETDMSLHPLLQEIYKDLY

[6] = biological target: T4, Peroxisome proliferator-activated receptor delta (Homo sapiens) (UniProt Q03181); assay: Agonist activity at PPAR-delta (unknown origin) by luciferase reporter gene assay
T4 sequence (whole entry): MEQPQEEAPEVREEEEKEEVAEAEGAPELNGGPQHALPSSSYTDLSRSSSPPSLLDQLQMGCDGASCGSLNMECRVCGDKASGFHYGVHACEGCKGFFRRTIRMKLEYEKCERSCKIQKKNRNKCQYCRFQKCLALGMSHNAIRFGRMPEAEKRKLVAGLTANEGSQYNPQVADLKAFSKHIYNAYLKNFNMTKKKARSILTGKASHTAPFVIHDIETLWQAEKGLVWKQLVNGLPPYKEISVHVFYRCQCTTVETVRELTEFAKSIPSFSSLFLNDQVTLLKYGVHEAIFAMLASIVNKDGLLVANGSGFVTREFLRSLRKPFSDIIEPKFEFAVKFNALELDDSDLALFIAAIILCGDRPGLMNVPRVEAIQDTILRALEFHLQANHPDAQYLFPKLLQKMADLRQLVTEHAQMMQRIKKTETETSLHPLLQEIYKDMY

[7] = biological target: T1, Oxysterols receptor LXR-beta; assay: Binding affinity to LXR-beta ligand binding domain (unknown origin) by TR-FRET assay in presence of 0.1 uM agonist N-(4-(1,1,1,3,3,3-hexafluoro-2-hydroxypropan-2-yl)phenyl)-N-(2,2,2-trifluoroethyl)benzenesulfonamide
THP-1 [8] = assay: Effect on ABCA1 gene expression in human THP1 cells at 10 uM by RT-PCR analysis; type: functional, cell-based
THP-1 [9] = assay: Effect on SREBP-1c gene expression in human THP1 cells at 10 uM by RT-PCR analysis; type: functional, cell-based

T1 sequence (P55055 whole entry): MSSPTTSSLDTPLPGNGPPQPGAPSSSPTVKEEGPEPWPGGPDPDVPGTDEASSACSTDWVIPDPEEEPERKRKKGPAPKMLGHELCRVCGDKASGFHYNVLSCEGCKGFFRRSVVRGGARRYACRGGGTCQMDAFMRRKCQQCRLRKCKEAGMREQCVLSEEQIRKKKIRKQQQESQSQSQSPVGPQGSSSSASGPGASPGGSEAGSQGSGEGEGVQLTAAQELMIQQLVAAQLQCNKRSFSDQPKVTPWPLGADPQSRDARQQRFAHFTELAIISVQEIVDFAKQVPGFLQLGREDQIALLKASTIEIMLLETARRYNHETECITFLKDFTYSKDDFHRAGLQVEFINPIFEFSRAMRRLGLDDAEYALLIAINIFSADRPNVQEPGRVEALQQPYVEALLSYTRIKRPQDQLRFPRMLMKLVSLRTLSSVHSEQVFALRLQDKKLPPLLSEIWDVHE
Sequence of Oxysterols receptor LXR-alpha (Q13133 whole entry): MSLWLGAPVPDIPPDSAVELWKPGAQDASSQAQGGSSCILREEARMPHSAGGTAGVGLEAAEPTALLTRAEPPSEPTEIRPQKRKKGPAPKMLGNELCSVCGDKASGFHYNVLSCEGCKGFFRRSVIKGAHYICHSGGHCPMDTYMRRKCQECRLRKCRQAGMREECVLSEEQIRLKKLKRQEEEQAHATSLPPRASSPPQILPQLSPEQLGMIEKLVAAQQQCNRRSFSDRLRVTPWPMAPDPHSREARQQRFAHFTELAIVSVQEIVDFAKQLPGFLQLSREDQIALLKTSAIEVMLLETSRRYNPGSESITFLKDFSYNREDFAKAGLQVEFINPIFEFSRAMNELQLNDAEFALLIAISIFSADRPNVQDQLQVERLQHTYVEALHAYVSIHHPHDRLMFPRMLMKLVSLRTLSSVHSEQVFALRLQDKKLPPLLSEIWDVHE

IC50 [1] [µM]	IC50 [2] [µM]	inhibition [3]	inhibition [5]	inhibition [6]	IC50 [7] [µM]	SMILES	inhibition (THP-1 [4])	Activity (THP-1 [8])	Activity (THP-1 [9])
17	21	–	–	–	–	COc1ccc(/C=C\c2ccccc2N2C(=O)c3ccccc3C2=O)cc1OC	–	–	–
3.3	4.3	Active	Active	Active	1.8	COc1ccc(/C=C/c2ccccc2N2C(=O)c3ccccc3C2=O)cc1OC	inactive	inactive	inactive
